Reference: patent publication US10905676B2, “Angiotensin II receptor antagonist for the prevention or treatment of systemic diseases in cats” (priority 2017, dated 2021)

How the values were obtained:
[1] = Safety after repeated oral administration over four weeks (Example 3); type: in vivo, cats
Protocol: 5-5. 1 kg were used in this study. The animals were allocated to 3 groups, 4 animals per group. […] The bottles with the test/control article looked identical with the exception of the animal no. in order to achieve blinding.
Blood samples for haematology and clinical chemistry were collected from the animals on days-1 (i.e. prior to the first treatment) and again on days 3, 7, 14, 28. Body weights were measured weekly and electrocardiography recording were made on days −1, 14, 21 and 28. A detailed physical examination including determination of rectal temperature and respiratory rate was carried out on days -1, 7, 14, 22 and 28. Systolic blood pressure (once daily) and heart rate (twice daily) were determined five days per week beginning prior to treatment until necropsy. The palatability of the administered article was assessed at various time points throughout treatment using a scoring system. On day 28 of the study, all animals were subjected to necropsy and stomach and kidneys were examined histopathologically. Relevant parameters were analysed using appropriate statistical procedures.

[2] = test system: cats with systemic hypertension; test: U.S. study of safety and effectiveness in cats with systemic hypertension (Example 4); type: in vivo
Source text: Of the remaining 288 cats used for the safety summary, 192 received IVP and 96 received ICP from a total of 33 sites within the United States (US) and Canada. […] Overall, both treatment groups were evenly distributed with regard to demographics and baseline characteristics including age, body weight, mSBP, retinal/fundic changes, and laboratory values. The median age of cats enrolled in this study was 14.2 years. Upon enrollment into the study, cats were orally administered telmisartan by their owners, where the owners were given the option of dosing the treatments around or on the food or via syringe. A dosing syringe was provided with demarcations in 0.1 mL increments as well as a dose and volume to be given, rounded to the nearest 0.1 mL (where the calculation was based on kg of body weight for each cat at Visit 1, and the dose was recalculated at each subsequent visit using the current body weight). […] Following Visit 2 (approximately Day 14), the dose was decreased to the 2 mg/kg once daily (SID) maintenance dose. The reduction and maintenance dosage regimen for the cats in the study is set forth in Table 6: The maintenance dose for a cat in the study could be further down-titrated if the mSBP of the cat remained below 120 mmHg from Visit 2 (at about day 14) and onward. […] At Visit 2 and at Unscheduled Visits, blood and urine samples were collected at the discretion of the Investigator. Changes in all parameters were summarized by treatment group as well as by subpopulation, if appropriate. The primary variable for statistical analysis was mSBP reduction from baseline observed at Visit 2. […] Telmisartan was successful in fulfilling both primary criteria for efficacy in cats as described below.

[3] = test system: cats with moderate to severe systemic hypertension; test: European study of efficacy and safety in cats with systemic hypertension (Example 6); type: in vivo
Protocol: A European study was conducted to investigate the efficacy and safety of telmisartan oral solution for the treatment of systemic hypertension in cats. The first part or phase of the study (Day 1 to Day 28) occurred over a 28-day placebo-controlled, double-blinded treatment period (efficacy phase of the study). […] The target population for this study was domestic client-owned cats with moderate to severe systemic hypertension (cats having a mSBP of at least about 160 mmHg). […] A schematic overview of the study and the two phases of treatment is depicted in FIG. 3. There was a similar pre-treatment mSBP observed for both treatment groups (about 177-179 mmHg). Cats diagnosed with moderate to severe systemic hypertension in compliance with the “ACVIM consensus statement: Guidelines for the Identification, Evaluation, and Management of Systemic Hypertension in Dogs and Cats” (Brown et al. Guidelines for the identification, evaluation, and management of systemic hypertension in dogs and cats. ACVIM Consensus Statement. J Vet Intern Med 2007; 21: 542-558) at two separate Screening Visits within 14 days of the start of treatment were eligible for the study. The etiology of the hypertension was classified as due to chronic kidney disease (CKD), due to hyperthyroidism, due to both CKD and hyperthyroidism or as idiopathic hypertension. Cats were not allowed any substances which are known to affect blood pressure from 14 days prior to the start of treatment. […] A 5 mL dosing syringe (demarcated in 0.25 mL increments) was used for the first phase and a 2 mL dosing syringe (demarcated in 0.1 mL increments, to achieve down titrations as necessary) to perform dosing either directly into the mouth of the cat or with a very small amount of food. For the first (efficacy) phase of the study, all recruited cats were examined on two visits at Day 14 and Day 28. Examinations included measurement of mSBP, a complete physical examination, fundoscopic examination, an assessment of quality of life, and abbreviated clinical pathology (hematology and biochemistry). […] These cats were further examined, as above, for visits at Days 56, 84 and 120. During the second (extended) phase of the study, it was possible to decrease or down titrate the dose for certain cats as described herein.

CCCc1nc2c(C)cc(-c3nc4ccccc4n3C)cc2n1Cc1ccc(-c2ccccc2C(=O)O)cc1 [telmisartan, 4′-[2-n-propyl-4-methyl-6-(1-methylbenzimidazol-2-yl)-benzimidazol-1-ylmethyl]-biphenyl-2-carboxylic acid]
physical and ECG examinations ([1]; all time points): did not reveal treatment-related findings
histopathology of stomach and kidneys ([1]; day 28): no histopathological findings considered to be associated with the treatment
necropsy findings ([1]; day 28): No animal showed any specific finding
body weights, rectal temperature, respiratory and heart rates ([1]; during the course of the study): No significant differences
clinical findings ([1]; entire study period, 1 and 3 mg/kg once daily): No clinical findings clearly attributable to the treatment
haematological and clinical chemistry parameters including differential leukocyte count ([1]; treated groups vs concurrent controls): No treatment-related differences
LSM mSBP change from baseline to Visit 2 ([2]; 1.5 mg/kg BID oral, about Day 14, N 141): −23.3 ΔmmHg
arithmetic mean decrease of mSBP, baseline minus Visit 3 ([2]; Visit 3 (about Day 28), 1.5 mg/kg BID then 2 mg/kg SID): 23.9 mmHg
mean decrease of mSBP ([2]; baseline to Visit 2 (about Day 14)): 23.3 mmHg
Serious Adverse Events (SAEs) attributable ([2]; hypertensive cats, 28 days): very few
percentage of cats with retinal lesions scoring "better" ([2]; retinal photographs vs baseline): 11.5%
mSBP change on Day 28 ([3]; 2.0 mg/kg once daily oral, n = 165): −24.629 ΔmmHg
mSBP change on Day 14 ([3]; 2.0 mg/kg once daily oral, n = 174): −19.219 ΔmmHg
Mean SABP reduction compared to baseline at respective visit ([3]; SABP at baseline between 160-179 mmHg (171.9), Day 14, n = 98): −16.7 ΔmmHg
Mean SABP reduction compared to baseline at respective visit ([3]; SABP at baseline between 160-179 mmHg, Day 28, n = 94): −22.9 ΔmmHg
Mean SABP reduction compared to baseline at respective visit ([3]; SABP at baseline between 160-179 mmHg, Day 56, n = 87): −24.7 ΔmmHg
Mean SABP reduction compared to baseline at respective visit ([3]; SABP at baseline between 160-179 mmHg, Day 84, n = 85): −23.2 ΔmmHg
Mean SABP reduction compared to baseline at respective visit ([3]; SABP at baseline between 160-179 mmHg, Day 120, n = 81): −23.5 ΔmmHg
Mean SABP reduction compared to baseline at respective visit ([3]; SABP at baseline between 180-200 mmHg (188.4), Day 14, n = 76): −22.3 ΔmmHg
Mean SABP reduction compared to baseline at respective visit ([3]; SABP at baseline between 180-200 mmHg, Day 28, n = 71): −26.6 ΔmmHg
Mean SABP reduction compared to baseline at respective visit ([3]; SABP at baseline between 180-200 mmHg, Day 56, n = 65): −29.6 ΔmmHg
Mean SABP reduction compared to baseline at respective visit ([3]; SABP at baseline between 180-200 mmHg, Day 84, n = 63): −30.7 ΔmmHg
Mean SABP reduction compared to baseline at respective visit ([3]; SABP at baseline between 180-200 mmHg, Day 120, n = 63): −32.9 ΔmmHg
% of cats with Systolic Blood Pressure < 160 mmHg ([3]; Visit Day 14): 46.6%
N of cats with Systolic Blood Pressure < 160 mmHg ([3]; Visit Day 14): 81
% of cats with Systolic Blood Pressure < 160 mmHg ([3]; Visit Day 56): 70.9%
N of cats with Systolic Blood Pressure < 160 mmHg ([3]; Visit Day 56): 105
% of cats with Systolic Blood Pressure < 160 mmHg ([3]; Visit Day 84): 67.8%
N of cats with Systolic Blood Pressure < 160 mmHg ([3]; Visit Day 84): 97
% of cats with Systolic Blood Pressure < 160 mmHg ([3]; Visit Day 120): 73.1%
N of cats with Systolic Blood Pressure < 160 mmHg ([3]; Visit Day 120): 98
% of cats with Systolic Blood Pressure < 160 mmHg ([3]; Visit day 28): 62.0%
N of cats with Systolic Blood Pressure < 160 mmHg ([3]; Visit day 28): 101
cats with an increased appetite ([3]; between day −1 and 28): 11%
reduction in mSBP (mean change in SBP from baseline) ([3]; each visit day, whole study duration of 120 days): greater than 20 mmHg
cats with adverse events ([3]; efficacy phase, 115 adverse events coded for 58 cats): 29.9%
cats in which it was possible to down-titrate the dose to <2 mg/kg ([3]; extended use phase): 21.7%
Mean Systolic Blood Pressure change on Day 120 compared to baseline SBP ([3]; extended use phase, n = 144 cats): −27.62 ΔmmHg
Mean Systolic Blood Pressure change on Day 84 compared to baseline SBP ([3]; extended use phase, n = 148 cats): −26.50 ΔmmHg
Mean Systolic Blood Pressure change on Day 56 compared to baseline SBP ([3]; extended use phase, n = 152 cats): −26.94 ΔmmHg
changes in a physical or clinical pathology parameter ([3]; following 120 days of treatment): no clinically relevant changes
mean body weight, mean heart rate, respiratory rate, and rectal temperature ([3]; following 120 days treatment): no clinically significant change
cats with at least one adverse event ([3]; second (extended use) phase, 62 cats): 32.0%
